These results are taken from patent US20150105429A1, “BENZYL SULFONAMIDE DERIVATIVES AS RORC MODULATORS” (Genentech, Inc., priority 2011, published 2015).

The structures appear in SMILES notation. pIC50: −log10 of the molar value.

The target in this test is T1, RORc ligand binding domain (Homo sapiens, UniProt P51449).
T1 construct: host or cells: E. coli
T1 sequence (P51449 269-508 limits assumed): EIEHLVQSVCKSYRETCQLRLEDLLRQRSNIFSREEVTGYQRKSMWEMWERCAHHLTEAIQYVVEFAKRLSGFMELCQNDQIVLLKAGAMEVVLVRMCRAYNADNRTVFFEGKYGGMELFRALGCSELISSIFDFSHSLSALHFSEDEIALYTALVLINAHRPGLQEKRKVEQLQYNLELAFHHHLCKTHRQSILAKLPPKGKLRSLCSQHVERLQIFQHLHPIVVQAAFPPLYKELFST
Kind of test: In Vitro RORc Ligand Binding Assay. The settings on record: radioligand 25-[3H]hydroxycholesterol 6 nM; 0.6 ug/mL RORc receptor; 3 h at 25° C.; read-out: IC50 values (micromolar) for RORc affinity. As to the method: This assay was used to determine a compound's potency in inhibiting activity of RORc by determining, Kiapp, IC50, or percent inhibition values.
On day of the assay, 100 uL of 0.05% CHAPS (in deionized H2O) was added to all wells of the GFB Unifilter plate and allowed soak for 1 h. A wash buffer of 50 mM HEPES (pH 7.4), 150 mM NaCl, and 5 mM MgCl2 was prepared to wash the filter plate. To prepare an assay buffer, BSA was added to the wash buffer to reach 0.01% and DTT was added to reach 1 mM.
The 20× compound stocks were diluted in DMSO with Assay Buffer 4-fold to reach 5× the final test concentration in 25% DMSO (10 uL compound+30 uL Assay Buffer). Solutions were mixed by aspiration several times with a pipette set on 50 uL volume. For the assay, 10 uL of 5× compound stock solutions in 25% DMSO were added to the assay plate in duplicate.
For two point screening, 10 mM stock compound solutions were diluted in DMSO to obtain 200 uM (20× the high test concentration) and then diluted 10-fold further to reach 20 uM (20× the low test concentration). The 20× stocks were diluted 4-fold with Assay Buffer (10 uL compound+30 uL Assay Buffer) to reach 5× the test concentrations (50 uM and 5 uM) and 10 uL were added to two assay plates for the duplicate wells. With each concentration tested on 2 plates, each set of 80 compounds used 4 assay plates (1 uM and 10 uM, with n=2).
For 25-hydroxycholesterol in 25% DMSO/75% Assay Buffer; 10 uL per well was used for NSB samples. Wells for Total Binding and No Receptor sample determination contained 10 uL of 25% DMSO/75% Assay Buffer per well.
Radioligand (25-[^3H]hydroxycholesterol) Preparation
Added 20 uL to all wells to reach 6 nM final in the assay.
Stock receptor solution was diluted in assay buffer to obtain 1.5 ug/mL in Assay Buffer. 20 uL was added to all wells. For No R samples, 20 uL Assay Buffer was substituted for receptor solution.
Assay plates were 96-well polypropylene V-bottom plates. 10 uL of 5× compound in 25% DMSO/75% Assay Buffer was added to Test wells. 10 uL of 25% DMSO/75% Assay Buffer was added to Total Binding or No Receptor wells. 10 uL of 5 uM 25-hydroxycholesterol in 25% DMSO/75% Assay Buffer was added to NSB wells. […] 20 uL of 1.5 ug/mL RORc receptor was added to wells (or 40 uL Assay Buffer to No R wells). Following addition to the wells, the plates were incubated 3 h at 25° C.
Using a Packard Filtermate Harvester, the filter plates were washed 4 times following transfer of the incubated samples. Plates were dry-filtered completely (2 h at 50° C. or overnight at room temperature). 50 uL Microscint 0 was added to all wells and read on Topcount protocol Inverted.
Final concentrations were as follows: 50 mM HEPES buffer (pH 7.4); 150 mM NaCl; 1 mM DTT; 5 mM MgCl2; 0.01% BSA; 5% DMSO; 0.6 ug/mL RORc receptor; 6 nM 25-[^3H]hydroxycholesterol. For NSB wells, 1 uM 25-hydroxycholesterol was also present.
A word on the pIC50: it is the IC50 on a negative log10 scale, so that one unit is a factor of ten. Turning to `CC(C)CN(Cc1ccc(-c2cccc(S(C)(=O)=O)c2)cc1)S(=O)(=O)Cc1ccccc1` [Compound 1, N-Isobutyl-N-(3′-methanesulfonyl-biphenyl-4-ylmethyl)-C-phenyl-methanesulfonamide], the pIC50 was 6.44.

Take `CS(=O)(=O)c1cccc(-c2ccc(CN(Cc3ccc(F)cc3Cl)S(=O)(=O)Cc3ccccc3)cc2)c1` [Compound 2, N-(2-Chloro-4-fluoro-benzyl)-N-(3′-methanesulfonyl-biphenyl-4-ylmethyl)-C-phenyl-methanesulfonamide]: the pIC50 was 5.55.

In the case of `Cc1nn(C)c(C)c1-c1ccc(CN(CC(C)C)S(=O)(=O)Cc2ccccc2)cc1` [Compound 3, N-Isobutyl-C-phenyl-N-[4-(1,3,5-trimethyl-1H-pyrazol-4-yl)-benzyl]-methanesulfonamide], the negative logarithm of the IC50 (pIC50) was 5.77.

Turning to `CC(C)CN(Cc1ccc(-c2ccc(C(=O)N(C)C)cc2)cc1)S(=O)(=O)Cc1ccccc1` [Compound 5, 4′-[(Isobutyl-phenylmethanesulfonyl-amino)-methyl]-biphenyl-4-carboxylic acid dimethylamide], the negative-log IC50 (pIC50) is 6.02.

As for `CNS(=O)(=O)c1ccc(-c2ccc(CN(CC(C)C)S(=O)(=O)Cc3ccccc3)cc2)cc1` [Compound 9, 4′-[(Isobutyl-phenylmethanesulfonyl-amino)-methyl]-biphenyl-4-sulfonic acid methylamide], the negative-log IC50 (pIC50) was 7.19.

On to `Cc1n[nH]c(C)c1-c1ccc(CN(CC(C)C)S(=O)(=O)Cc2ccccc2)cc1` [Compound 10, N-[4-(3,5-Dimethyl-1H-pyrazol-4-yl)-benzyl]-N-isobutyl-C-phenyl-methanesulfonamide], for which the pIC50 is 5.55.

In the case of `CC(C)CN([C@H](C)c1ccc(-c2ccc(C(N)=O)cc2)cc1)S(=O)(=O)Cc1ccccc1` [Compound 14, 4′-[(R)-1-(Isobutyl-phenylmethanesulfonyl-amino)-ethyl]-biphenyl-4-carboxylic acid amide], the negative logarithm of the IC50 (pIC50) is 6.89.

For the molecule `CC(C)CN([C@H](C)c1ccc(-c2ccc(NS(C)(=O)=O)cc2)cc1)S(=O)(=O)Cc1ccccc1` [Compound 15, N-Isobutyl-N-[(R)-1-(4′-methanesulfonylamino-biphenyl-4-yl)-ethyl]-C-phenyl-methanesulfonamide], the negative-log IC50 (pIC50) is 6.16.

For `CC(C)CN([C@@H](C)c1ccc(-c2ccc(C(N)=O)cc2)cc1)S(=O)(=O)Cc1ccccc1` [Compound 17, 4′-[(S)-1-(Isobutyl-phenylmethanesulfonyl-amino)-ethyl]-biphenyl-4-carboxylic acid amide], the pIC50 is 6.81.

Turning to `CC(C)CN([C@@H](C)c1ccc(-c2ccc(S(C)(=O)=O)cc2)cc1)S(=O)(=O)Cc1ccccc1` [Compound 18, N-Isobutyl-N-[(S)-1-(4′-methanesulfonyl-biphenyl-4-yl)-ethyl]-C-phenyl-methanesulfonamide], the pIC50 was 6.77.

Regarding `CC(C)CN([C@@H](C)c1ccc(-c2cccc(S(C)(=O)=O)c2)cc1)S(=O)(=O)Cc1ccccc1` [Compound 19, N-Isobutyl-N-[(S)-1-(3′-methanesulfonyl-biphenyl-4-yl)-ethyl]-C-phenyl-methanesulfonamide], the pIC50 is 6.16.

Take `CC(C)CN([C@@H](C)c1ccc(-c2ccc(NS(C)(=O)=O)cc2)cc1)S(=O)(=O)Cc1ccccc1` [Compound 20, N-Isobutyl-N-[(S)-1-(4′-methanesulfonylamino-biphenyl-4-yl)-ethyl]-C-phenyl-methanesulfonamide]: the pIC50 was 6.60.

As for `CC(C)CN([C@H](C)c1ccc(-c2ccc(S(C)(=O)=O)cc2)cc1)S(=O)(=O)Cc1ccccc1` [Compound 21, N-Isobutyl-N-[(R)-1-(4′-methanesulfonyl-biphenyl-4-yl)-ethyl]-C-phenyl-methanesulfonamide], the pIC50 is 5.54.

In the case of `CC(C)CN(Cc1ccc(-c2ccc(S(C)(=O)=O)cc2)cc1F)S(=O)(=O)Cc1ccccc1` [Compound 22, N-(3-Fluoro-4′-methanesulfonyl-biphenyl-4-ylmethyl)-N-isobutyl-C-phenyl-methanesulfonamide], the negative-log IC50 (pIC50) was 7.72.

Consider `O=S(=O)(Cc1ccccc1)N(Cc1ccc(-c2ccncc2)cc1F)CC(F)(F)F` [Compound 23, N-(2-Fluoro-4-pyridin-4-yl-benzyl)-C-phenyl-N-(2,2,2-trifluoro-ethyl)-methanesulfonamide], for which the pIC50 is 6.55.

On to `Cc1cc(CN(CC(C)C)S(=O)(=O)Cc2ccccc2)ccc1-c1ccc(S(C)(=O)=O)cc1` [Compound 24, N-Isobutyl-N-(4′-methanesulfonyl-2-methyl-biphenyl-4-ylmethyl)-C-phenyl-methanesulfonamide], for which the pIC50 is 7.96.

As to `Cc1cc(-c2ccc(S(C)(=O)=O)cc2)ccc1CN(CC(C)C)S(=O)(=O)Cc1ccccc1` [Compound 25, N-Isobutyl-N-(4′-methanesulfonyl-3-methyl-biphenyl-4-ylmethyl)-C-phenyl-methanesulfonamide], the negative logarithm of the IC50 (pIC50) was 7.24.

For `CC(C)CN(Cc1ccc(-c2cccc(S(C)(=O)=O)c2)s1)S(=O)(=O)c1cccc(Cl)c1` [Compound 26, 3-Chloro-N-isobutyl-N-[5-(3-methanesulfonyl-phenyl)-thiophen-2-ylmethyl]-benzenesulfonamide], the pIC50 is 6.73.

Turning to `CC(C)CN(Cc1ccc(-c2cccc(S(C)(=O)=O)c2)s1)S(=O)(=O)c1ccccc1C#N` [Compound 27, 2-Cyano-N-isobutyl-N-[5-(3-methanesulfonyl-phenyl)-thiophen-2-ylmethyl]-benzenesulfonamide], the negative-log IC50 (pIC50) is 5.43.

Consider `CC(C)CN(Cc1ccc(-c2cccc(S(C)(=O)=O)c2)s1)S(=O)(=O)c1ccccc1` [Compound 28, N-Isobutyl-N-[5-(3-methanesulfonyl-phenyl)-thiophen-2-ylmethyl]-benzenesulfonamide], for which the pIC50 was 6.32.

Turning to `CC(C)CN(Cc1ccc(-c2cccc(S(C)(=O)=O)c2)s1)S(=O)(=O)Cc1ccccc1F` [Compound 29, C-(2-Fluoro-phenyl)-N-isobutyl-N-[5-(3-methanesulfonyl-phenyl)-thiophen-2-ylmethyl]-methanesulfonamide], the pIC50 is 5.82.

For the molecule `CC(C)CN(Cc1ccc(-c2cccc(S(C)(=O)=O)c2)s1)S(=O)(=O)Cc1ccc(F)cc1` [Compound 30, C-(4-Fluoro-phenyl)-N-isobutyl-N-[5-(3-methanesulfonyl-phenyl)-thiophen-2-ylmethyl]-methanesulfonamide], the pIC50 was 5.85.

`CC(C)CN(Cc1ccc(-c2cccc(S(C)(=O)=O)c2)s1)S(=O)(=O)Cc1cccc(F)c1` [Compound 31, C-(3-Fluoro-phenyl)-N-isobutyl-N-[5-(3-methanesulfonyl-phenyl)-thiophen-2-ylmethyl]-methanesulfonamide]: the pIC50 was 5.89.

Consider `Cc1n[nH]c(C)c1S(=O)(=O)N(Cc1ccc(-c2cccc(S(C)(=O)=O)c2)s1)CC(C)C` [Compound 32, 3,5-Dimethyl-1H-pyrazole-4-sulfonic acid isobutyl-[5-(3-methanesulfonyl-phenyl)-thiophen-2-ylmethyl]-amide], for which the pIC50 is 5.60.

For the molecule `CC(C)CN(Cc1ccc(-c2cccc(S(C)(=O)=O)c2)s1)S(=O)(=O)c1cccc(C#N)c1` [Compound 33, 3-Cyano-N-isobutyl-N-[5-(3-methanesulfonyl-phenyl)-thiophen-2-ylmethyl]-benzenesulfonamide], the pIC50 was 5.62.

Regarding `CCn1cc(-c2ccc(CN(CC(C)C)S(=O)(=O)Cc3ccccc3)s2)cn1` [Compound 36, N-[5-(1-Ethyl-1H-pyrazol-4-yl)-thiophen-2-ylmethyl]-N-isobutyl-C-phenyl-methanesulfonamide], the pIC50 was 6.22.
